≈ marks a conversion by molar mass, not a printed value.
What was measured:
[1] = Human liver microsome (HLM) metabolic stability assay; format: in vitro ADME; details: human liver microsomes
In short: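 Compound at 1 uM incubated with human liver microsomes at 37° C. for 60 min after NADPH addition. Aliquots quenched in cold acetonitrile at 0, 5, 15, 30 and 60 min and analysed by LC/MS/MS. t1/2 from ln(% remaining) vs time slope; CLint, CLh and % Qh derived from it (n=1).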

[2] = biological target: human soluble guanylate cyclase alpha 1 and beta 1 subunits (sGC) (Homo sapiens (Human), UniProt Q02108+Q02153); experiment: sGC cellular activator assay (cGMP, HTRF), in the presence and absence of 50% human serum; format: cell-based; details: CHO cells stably expressing human sGC alpha 1/beta 1, preincubated with 40 microM ODQ; cGMP by HTRF; Table 2 does not state whether with or without 50% human serum
human soluble guanylate cyclase alpha 1 and beta 1 subunits (sGC), sequence (Q02108 whole entry partner): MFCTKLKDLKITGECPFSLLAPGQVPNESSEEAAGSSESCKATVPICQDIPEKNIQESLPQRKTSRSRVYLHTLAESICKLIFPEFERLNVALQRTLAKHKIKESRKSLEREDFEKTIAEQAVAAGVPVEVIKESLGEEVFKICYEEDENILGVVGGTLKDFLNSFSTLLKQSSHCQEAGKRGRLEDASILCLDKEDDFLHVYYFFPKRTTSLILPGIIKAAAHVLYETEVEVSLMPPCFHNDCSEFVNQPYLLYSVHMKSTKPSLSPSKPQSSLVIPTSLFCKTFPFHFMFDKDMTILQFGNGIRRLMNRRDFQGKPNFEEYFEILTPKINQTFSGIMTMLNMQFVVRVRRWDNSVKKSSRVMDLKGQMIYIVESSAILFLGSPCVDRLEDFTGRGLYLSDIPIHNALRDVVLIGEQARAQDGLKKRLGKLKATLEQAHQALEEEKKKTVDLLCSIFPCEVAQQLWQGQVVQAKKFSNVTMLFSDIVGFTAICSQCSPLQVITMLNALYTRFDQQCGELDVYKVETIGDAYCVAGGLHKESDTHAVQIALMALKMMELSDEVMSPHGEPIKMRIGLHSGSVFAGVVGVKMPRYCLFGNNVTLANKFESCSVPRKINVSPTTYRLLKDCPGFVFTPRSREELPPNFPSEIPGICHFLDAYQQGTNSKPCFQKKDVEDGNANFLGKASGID
human soluble guanylate cyclase alpha 1 and beta 1 subunits (sGC), sequence (Q02153 whole entry): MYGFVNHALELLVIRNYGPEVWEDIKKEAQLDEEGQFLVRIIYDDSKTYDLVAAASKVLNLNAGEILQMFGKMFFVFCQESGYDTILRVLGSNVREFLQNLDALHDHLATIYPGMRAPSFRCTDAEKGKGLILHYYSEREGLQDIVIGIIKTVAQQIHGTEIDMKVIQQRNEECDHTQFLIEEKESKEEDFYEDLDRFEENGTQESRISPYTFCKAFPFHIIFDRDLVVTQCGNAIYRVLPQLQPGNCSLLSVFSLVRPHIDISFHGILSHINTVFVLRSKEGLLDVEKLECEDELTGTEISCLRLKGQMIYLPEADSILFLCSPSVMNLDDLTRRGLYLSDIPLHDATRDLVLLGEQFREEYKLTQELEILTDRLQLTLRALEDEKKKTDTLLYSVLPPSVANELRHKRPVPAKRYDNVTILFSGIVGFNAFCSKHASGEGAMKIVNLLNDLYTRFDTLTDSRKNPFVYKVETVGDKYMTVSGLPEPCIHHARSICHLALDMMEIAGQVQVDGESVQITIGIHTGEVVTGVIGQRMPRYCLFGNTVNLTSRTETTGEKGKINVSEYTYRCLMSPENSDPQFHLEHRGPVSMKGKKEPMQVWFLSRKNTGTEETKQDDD
In short: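 Heme-oxidized conditions: ODQ (40 microM, 1 h) pretreatment of CHO cells stably expressing human α1/β1 sGC, in buffer containing 0.1% BSA and IBMX.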

physchem = details: kinetic from dmso stock
[3] = pH 2.2, aqueous buffer, Solubility (pH 2.2)
[4] = pH 4.5, aqueous buffer, Solubility (pH 4.5)
[5] = pH 6.8, aqueous buffer, Solubility (pH 6.8)

Structure (SMILES) | Metabolic stability (Qh %), % hepatic blood flow [1] [%] | EC50 [2] [nM] | solubility at 24 h (physchem; [3]) [µg/mL] | solubility at 24 h (physchem; [4]) [µg/mL] | solubility at 24 h (physchem; [5]) [µg/mL]
CO[C@@H]1CN(c2cccc(-c3cccc(C)c3OCc3cc(C)c4c(c3)CCN(C3CCOCC3)C4)n2)CC[C@H]1C(=O)O [Compound 299] | 31 | 152 | 134 (≈ 229 µM) | 90.8 (≈ 155 µM) | 70.8 (≈ 121 µM)
CO[C@@H]1CN(c2cccc(-c3cccc(C)c3OCc3ccc4c(c3C)CCN(C)CC4)n2)CC[C@@H]1C(=O)O [Compound 300] | <24 | 154 | 116 (≈ 220 µM) | 82.3 (≈ 155 µM) | 62.3 (≈ 118 µM)
Cc1c(COc2ccccc2-c2cccc(N3CC[C@@]4(C(=O)O)C[C@H]4C3)n2)ccc2c1CCNC2 [Compound 305] | 30 | 340 | 108 (≈ 231 µM) | 81.2 (≈ 173 µM) | 0.7 (≈ 1.49 µM)
CO[C@@H]1CN(c2cccc(-c3cccc(C)c3OCc3ccc4c(c3C)CN(C3CCOCC3)C4)n2)CC[C@@H]1C(=O)O [Compound 307] | <24 | 19 | 127 (≈ 223 µM) | 101 (≈ 176 µM) | 81.2 (≈ 142 µM)
Cc1c(COc2ccccc2-c2cccc(N3CC[C@@]4(C(=O)O)C[C@H]4C3)n2)ccc2c1CCN(Cc1cncn1C)C2 [Compound 308] | 43 | 10 | 135 (≈ 239 µM) | 97.5 (≈ 173 µM) | 0.1 (≈ 0.177 µM)
Cc1nccnc1C(C)N1CCc2c(ccc(COc3ccccc3-c3cccc(N4CC[C@@]5(C(=O)O)C[C@H]5C4)n3)c2C)C1 (some centres unmarked) [Compound 309] | 54 | 18 | 163 (≈ 276 µM) | 116 (≈ 197 µM) | 23.8 (≈ 40.4 µM)
CO[C@H]1CN(c2nc(-c3cccc(C)c3OCc3ccc4c(c3)[C@H](C)CN(C3CCOCC3)CC4)cs2)CC[C@H]1C(=O)O [Compound 313] | <24 | 7 | 141 (≈ 233 µM) | 136 (≈ 225 µM) | 133 (≈ 219 µM)
COC[C@H]1N(c2cccc(-c3cccc(C)c3OCc3cc(C)c4c(c3)OCCN(C3CCOCC3)C4)n2)C[C@@H]2C[C@@]21C(=O)O [Compound 314] | <24 | 529 | 115 (≈ 188 µM) | 110 (≈ 179 µM) | 98.9 (≈ 161 µM)
CCOC[C@H]1N(c2cccc(-c3cccc(C)c3OCc3cc(C)c4c(c3)CCN(C3CCOCC3)C4)n2)C[C@@H]2C[C@@]21C(=O)O [Compound 315] | <24 | 18 | 137 (≈ 224 µM) | 135 (≈ 221 µM) | 119 (≈ 195 µM)
CCOC[C@@H]1N(c2cccc(-c3cccc(C)c3OCc3cc(C)c4c(c3)CCN(C3CCOCC3)C4)n2)C[C@@H]2C[C@@]21C(=O)O [Compound 316] | 39 | 222 | 147 (≈ 240 µM) | 149 (≈ 243 µM) | 142 (≈ 232 µM)
COC[C@H]1N(c2cccc(-c3cccc(C)c3OCc3cnc4c(c3)CCN(C3CCOCC3)CC4)n2)C[C@@H]2C[C@@]21C(=O)O [Compound 317] | <24 | 245 | 158 (≈ 263 µM) | 152 (≈ 253 µM) | 139 (≈ 232 µM)
COC[C@H]1N(c2cccc(-c3cccc(C)c3OCc3ccc4c(n3)CCN(C3CCOCC3)C4)n2)C[C@@H]2C[C@@]21C(=O)O [Compound 318] | <24 | 739 | 151 (≈ 258 µM) | 123 (≈ 211 µM) | 73.7 (≈ 126 µM)
CO[C@H]1CN(c2nc(-c3cccc(Cl)c3OCc3ccc4c(c3)[C@H](C)CN(C3COC3)CC4)cs2)CC[C@H]1C(=O)O [Compound 322] | 47 | 7 | 110 (≈ 184 µM) | 36.4 (≈ 60.9 µM) | 60.2 (≈ 101 µM)
CO[C@H]1CN(c2nc(-c3cccc(C)c3OCc3ccc4c(c3)[C@@H](C)CN(C3COC3)CC4)cs2)CC[C@H]1C(=O)O [Compound 325] | 33 | 7 | 131 (≈ 227 µM) | 69.1 (≈ 120 µM) | 67.4 (≈ 117 µM)
CO[C@@H]1CN(c2nc(-c3cc(F)cc(C)c3OCc3ccc4c(c3C)CCN(C3CCOCC3)CC4)cs2)CC[C@@H]1C(=O)O [Compound 329] | <24 | 13 | 103 (≈ 164 µM) | 63.9 (≈ 102 µM) | 68 (≈ 109 µM)
CO[C@@H]1CN(c2nc(-c3cccc(Cl)c3OCc3ccc4c(c3)[C@@H](C)CN(C3CCOCC3)CC4)cs2)CC[C@@H]1C(=O)O [Compound 332] | <24 | 15 | 127 (≈ 202 µM) | 86.6 (≈ 138 µM) | 76.8 (≈ 123 µM)
Cc1cccc(-c2cccc(N3CC[C@H](C(=O)O)[C@@H]4OCCC[C@H]43)n2)c1OCc1ccc2c(c1C)CCN(C1COC1)CC2 [Compound 336] | 32 | 54 | 69.9 (≈ 117 µM) | 37.6 (≈ 62.9 µM) | 30 (≈ 50.2 µM)

These reach a lower EC50 [2]. Values come first.

Metabolic stability (Qh %), % hepatic blood flow [1] [%] | EC50 [2] [nM] | solubility at 24 h (physchem; [3]) [µg/mL] | solubility at 24 h (physchem; [4]) [µg/mL] | solubility at 24 h (physchem; [5]) [µg/mL] | Structure (SMILES)
61 | 5 | 99.8 (≈ 168 µM) | 51.8 (≈ 87 µM) | 59.1 (≈ 99.2 µM) | CO[C@@H]1CN(c2nc(-c3cc(F)cc(C)c3OCc3ccc4c(c3C)CCN(C3COC3)CC4)cs2)CC[C@@H]1C(=O)O [Compound 327]
26 | 4 | 115 (≈ 184 µM) | 60.6 (≈ 96.8 µM) | 46.4 (≈ 74.1 µM) | CO[C@H]1CN(c2nc(-c3cccc(Cl)c3OCc3ccc4c(c3)[C@H](C)CN(C3CCOCC3)CC4)cs2)CC[C@H]1C(=O)O [Compound 320]
<24 | 3 | 148 (≈ 252 µM) | 112 (≈ 190 µM) | 85.5 (≈ 146 µM) | CO[C@@H]1CN(c2cccc(-c3cccc(C)c3OCc3ccc4c(c3C)CCN([C@@H]3CCOC3)CC4)n2)CC[C@@H]1C(=O)O [Compound 302]
61 | 3 | 141 (≈ 246 µM) | 97.1 (≈ 169 µM) | 5.2 (≈ 9.05 µM) | Cc1c(COc2ccccc2-c2cccc(N3CC[C@@]4(C(=O)O)C[C@H]4C3)n2)ccc2c1CCN(C(C)c1ccccn1)C2 (some centres unmarked) [Compound 306]
63 | 3 | 99.5 (≈ 176 µM) | 61.6 (≈ 109 µM) | 0.5 (≈ 0.885 µM) | Cc1cc(CN2CCc3c(ccc(COc4ccccc4-c4cccc(N5CC[C@@]6(C(=O)O)C[C@H]6C5)n4)c3C)C2)no1 [Compound 311]
<24 | 3 | 155 (≈ 256 µM) | 143 (≈ 236 µM) | 146 (≈ 242 µM) | CO[C@H]1CN(c2nc(-c3cccc(C)c3OCc3ccc4c(c3)[C@@H](C)CN(C3CCOCC3)CC4)cs2)CC[C@H]1C(=O)O [Compound 312]
47 | 3 | 112 (≈ 187 µM) | 41.5 (≈ 69.4 µM) | 50.5 (≈ 84.4 µM) | CO[C@H]1CN(c2nc(-c3cccc(Cl)c3OCc3ccc4c(c3)[C@@H](C)CN(C3COC3)CC4)cs2)CC[C@H]1C(=O)O [Compound 321]
79 | 2 | 141 (≈ 232 µM) | 16.4 (≈ 27 µM) | 1 (≈ 1.65 µM) | Cc1cc(COc2c(C)cccc2-c2csc(N3CC[C@@]4(C(=O)O)C[C@H]4C3)n2)cc2c1CN(C1CCC(F)(F)CC1)CC2 [Compound 303]
45 | 2 | 131 (≈ 211 µM) | 84.3 (≈ 136 µM) | 65.2 (≈ 105 µM) | CO[C@H]1CN(c2nc(-c3cccc(C)c3OCc3ccc4c(c3)C(C)(C)CN(C3CCOCC3)CC4)cs2)CC[C@H]1C(=O)O [Compound 323]
<24 | 2 | 134 (≈ 218 µM) | 103 (≈ 168 µM) | 77.5 (≈ 126 µM) | CO[C@@H]1CN(c2cccc(-c3cccc(C)c3OCc3ccc4c(c3)C(C)(C)CN(C3CCOCC3)CC4)n2)CC[C@@H]1C(=O)O [Compound 324]
45 | 2 | 97.4 (≈ 156 µM) | 59.4 (≈ 95.2 µM) | 56.8 (≈ 91.1 µM) | CO[C@@H]1CN(c2nc(-c3cc(F)cc(C)c3OCc3ccc4c(c3)[C@@H](C)CN(C3CCOCC3)CC4)cs2)CC[C@@H]1C(=O)O [Compound 328]
<24 | 1 | 141 (≈ 241 µM) | 105 (≈ 180 µM) | 91.1 (≈ 156 µM) | CO[C@@H]1CN(c2cccc(-c3cccc(C)c3OCc3ccc4c(c3C)CCN([C@H]3CCOC3)CC4)n2)CC[C@@H]1C(=O)O [Compound 301]
25 | 1 | 109 (≈ 173 µM) | 60.2 (≈ 96.1 µM) | 55.4 (≈ 88.5 µM) | CO[C@H]1CN(c2nc(-c3cccc(Cl)c3OCc3ccc4c(c3)[C@@H](C)CN(C3CCOCC3)CC4)cs2)CC[C@H]1C(=O)O [Compound 319]
59 | 1 | 129 (≈ 220 µM) | 91.1 (≈ 156 µM) | 71.6 (≈ 122 µM) | CO[C@@H]1CN(c2cccc(-c3cccc(C)c3OCc3ccc4c(c3)C(C)(C)CN(C3COC3)CC4)n2)CC[C@@H]1C(=O)O [Compound 326]

Source: patent US9353090B2, “Heterocyclic carboxylic acids as activators of soluble guanylate cyclase” (Boehringer Ingelheim International GmbH, priority 2014, dated 2016)
